Values quoted from earlier work, collected in US20230405125A1, “TREATMENT OF RECURRENT GIOBLASTOMA WITH PERILLYL ALCOHOL” (NeOnc Technologies, Inc., priority 2020, published 2023).
“Also recorded” adds a separate entry of the source. Read-outs that look alike come from different tables or passages of the source.

Assays:
[1] = system: patients with recurrent malignant gliomas
[2] = system: patients with different solid tumors; settings: oral POH
[3] = target: farnesyl-protein transferase (FPT) (Homo sapiens, UniProt P49354+P49356)
[4] = Reardon et al. (CheckMate 143) 2020

In the case of `C=C(C)[C@@H]1CC=C(CO)CC1` [POH], the “six month progression free survival rate” value ([1]; intranasal commercial grade POH with solvent cocktail, 150 patients) is listed as 50%, the radiographic response ([1]; intranasal commercial-grade POH) is listed as “Radiographic regression” and the “tolerability / adverse effects” value ([1]; intranasal commercial-grade POH, four times daily) is listed as “minimal side effect; also recorded: good tolerance; also recorded: no severe adverse effects”. The anti-cancer efficacy [2] was “limited”, the tolerability [2] was “Gastrointestinal toxicity proved dose-limiting” and the tolerability ([2]; listed as perillyl alcohol) was “poorly tolerated”. For the same compound, the “effect on FPT enzymatic activity” value [3] was “inhibit”.

For “Bevacizumab: humanized monoclonal antibody against VEGF (vascular endothelial growth factor)”, the OS-6 (recurrent GBM patients; Field et al. (CABARET) 2015) is listed as 61%, the OS-9 (recurrent GBM patients; Field et al. (CABARET) 2015) is listed as 39% and the OS-12 (recurrent GBM patients; Field et al. (CABARET) 2015) is listed as 24%. The “median OS” value (recurrent GBM patients; Field et al. (CABARET) 2015) was 7.5 months, the OS-6 (recurrent GBM patients; Heiland et al. 2016) was 18% and the OS-12 (recurrent GBM patients; Heiland et al. 2016) was 10%. The “median OS” value (recurrent GBM patients; Heiland et al. 2016) was 4.1 months, the OS-6 (recurrent GBM patients; Taal et al. (BELOB) 2014) was 64% and the OS-9 (recurrent GBM patients; Taal et al. (BELOB) 2014) was 38%. For the same compound, the OS-12 (recurrent GBM patients; Taal et al. (BELOB) 2014) was 26% and the “median OS” value (recurrent GBM patients; Taal et al. (BELOB) 2014) was 8.0 months.

In the case of “Nivolumab: fully human monoclonal antibody targeting the programmed death-1 (PD-1) immune checkpoint receptor”, the OS-6 (recurrent GBM patients; [4]) is listed as 72%, the OS-9 (recurrent GBM patients; [4]) is listed as 52% and the OS-12 (recurrent GBM patients; [4]) is listed as 42%. The “median OS” value (recurrent GBM patients; [4]) was 9.8 months.

For `O=NN(CCCl)C(=O)NC1CCCCC1` [Lomustine], the OS-6 (recurrent GBM patients; Batchelor et al. 2013) is listed as 70%, the OS-9 (recurrent GBM patients; Batchelor et al. 2013) is listed as 52% and the OS-12 (recurrent GBM patients; Batchelor et al. 2013) is listed as 41%. For the same compound, the “median OS” value (recurrent GBM patients; Batchelor et al. 2013) was 9.8 months.

In the case of `CCOP(=O)(OCC)C(C)NC(=O)N(CCCl)N=O` (stereo not drawn) [Fotemustine], the OS-6 (recurrent GBM patients; human, in vivo) is given as 73%, the OS-9 (recurrent GBM patients; human, in vivo) is given as 47% and the OS-12 (recurrent GBM patients; human, in vivo) is given as 40%. For the same compound, the “median OS” value (recurrent GBM patients; human, in vivo) was 8.7 months.
